Experimental data from US11149017B2, “Solid state forms of apalutamide” (WATSON LABORATORIES INC., priority 2016, dated 2021).

Columns and labels:
[1] = Bulk density and tapped (tap) density of powder; assay type: physicochemical; settings: as compared to form A of Apalutamide
Excerpt: Bulk density as used in the present application is meant the ratio between mass (weight) and bulk volume for the powder blend. Tapped (tap) density is the maximum packing density of a powder (or blend of powders) achieved under the influence of well defined, externally applied forces. The minimum packed volume thus achieved depends on a number of factors including particle size distribution, true density, particle shape and cohesiveness due to surface forces including moisture. Therefore, the tap density of a material can be used to predict both its flow properties and its compressibility. These two parameters are important in the overall tableting process—which requires that loose powders be compacted into a durable solid form with the correct mechanical strength, porosity and dissolution characteristics—and in capsule filling performance.

[2] = Solubility Study (aqueous buffers, dissolution apparatus, LC analysis); assay type: physicochemical; settings: compared to other crystalline forms of Apalutamide, e.g. crystalline form B
Procedure: Solubility of Apalutamide was checked using Dissolution apparatus (Lab India D8000) at 37 deg.
Buffers pH. 1.2, 4.5 and 6.8 were prepared as per the USP 36 Solutions/Buffer Solutions 1209.
About 500 mg of Apalutamide were added to the 100 mL buffer (pH 1.2, 4.5 and 6.8) in individual flasks to obtain saturated suspension and the suspension was stirred with 250 rpm for 24 hours. Suspension was observed though out stirring period. Samples were drawn at different intervals on completion of 15 mins, 1 hrs, 4 hrs and 24 hrs from each flask and filtered through 0.45μ PTFE filter; each solution was analyzed for Apalutamide content by liquid chromatography.

Row | SMILES | bulk density [1] | tap density [1] | aqueous solubility [2]
1 | CNC(=O)c1ccc(N2C(=S)N(c3cnc(C#N)c(C(F)(F)F)c3)C(=O)C23CCC3)cc1F [form T13, Apalutamide] | higher bulk density | higher tap density | –
2 | CNC(=O)c1ccc(N2C(=S)N(c3cnc(C#N)c(C(F)(F)F)c3)C(=O)C23CCC3)cc1F [form T11, Apalutamide] | – | – | higher aqueous solubility
